Source: ChEMBL document CHEMBL4406870, “Design, synthesis, and biological evaluation of 4-phenoxyquinoline derivatives as potent c-Met kinase inhibitor” (Bioorg Med Chem Lett, 2019)

How the values were obtained:
[1] = tested on: NCI-H460; assay: cells; settings: Homo sapiens, NCI-H460, 72 h
Description: Cytotoxicity against human H460 cells assessed as reduction in cell viability incubated for 72 hrs by MTT assay

[2] = tested on: HT-29; assay: cells; settings: Homo sapiens, HT-29, 72 h
Description: Cytotoxicity against human HT-29 cells assessed as reduction in cell viability incubated for 72 hrs by MTT assay

[3] = tested on: MKN-45; assay: cells; settings: Homo sapiens, MKN-45, 72 h
Description: Cytotoxicity against human MKN45 cells assessed as reduction in cell viability incubated for 72 hrs by MTT assay

[4] = tested on: A549; assay: cells; settings: Homo sapiens, A549, 72 h
Description: Cytotoxicity against human A549 cells assessed as reduction in cell viability incubated for 72 hrs by MTT assay

[5] = tested on: U-87 MG; assay: cells; settings: Homo sapiens, 72 h
Description: Cytotoxicity against human U87MG cells assessed as reduction in cell viability incubated for 72 hrs by MTT assay

[6] = molecular target: Hepatocyte growth factor receptor (Homo sapiens, UniProt P08581); assay: Inhibition of cMET (unknown origin) using poly (Glu, Tyr) 4:1 as substrate incubated for 30 mins by HTRF assay
Chain of Hepatocyte growth factor receptor (P08581 whole entry): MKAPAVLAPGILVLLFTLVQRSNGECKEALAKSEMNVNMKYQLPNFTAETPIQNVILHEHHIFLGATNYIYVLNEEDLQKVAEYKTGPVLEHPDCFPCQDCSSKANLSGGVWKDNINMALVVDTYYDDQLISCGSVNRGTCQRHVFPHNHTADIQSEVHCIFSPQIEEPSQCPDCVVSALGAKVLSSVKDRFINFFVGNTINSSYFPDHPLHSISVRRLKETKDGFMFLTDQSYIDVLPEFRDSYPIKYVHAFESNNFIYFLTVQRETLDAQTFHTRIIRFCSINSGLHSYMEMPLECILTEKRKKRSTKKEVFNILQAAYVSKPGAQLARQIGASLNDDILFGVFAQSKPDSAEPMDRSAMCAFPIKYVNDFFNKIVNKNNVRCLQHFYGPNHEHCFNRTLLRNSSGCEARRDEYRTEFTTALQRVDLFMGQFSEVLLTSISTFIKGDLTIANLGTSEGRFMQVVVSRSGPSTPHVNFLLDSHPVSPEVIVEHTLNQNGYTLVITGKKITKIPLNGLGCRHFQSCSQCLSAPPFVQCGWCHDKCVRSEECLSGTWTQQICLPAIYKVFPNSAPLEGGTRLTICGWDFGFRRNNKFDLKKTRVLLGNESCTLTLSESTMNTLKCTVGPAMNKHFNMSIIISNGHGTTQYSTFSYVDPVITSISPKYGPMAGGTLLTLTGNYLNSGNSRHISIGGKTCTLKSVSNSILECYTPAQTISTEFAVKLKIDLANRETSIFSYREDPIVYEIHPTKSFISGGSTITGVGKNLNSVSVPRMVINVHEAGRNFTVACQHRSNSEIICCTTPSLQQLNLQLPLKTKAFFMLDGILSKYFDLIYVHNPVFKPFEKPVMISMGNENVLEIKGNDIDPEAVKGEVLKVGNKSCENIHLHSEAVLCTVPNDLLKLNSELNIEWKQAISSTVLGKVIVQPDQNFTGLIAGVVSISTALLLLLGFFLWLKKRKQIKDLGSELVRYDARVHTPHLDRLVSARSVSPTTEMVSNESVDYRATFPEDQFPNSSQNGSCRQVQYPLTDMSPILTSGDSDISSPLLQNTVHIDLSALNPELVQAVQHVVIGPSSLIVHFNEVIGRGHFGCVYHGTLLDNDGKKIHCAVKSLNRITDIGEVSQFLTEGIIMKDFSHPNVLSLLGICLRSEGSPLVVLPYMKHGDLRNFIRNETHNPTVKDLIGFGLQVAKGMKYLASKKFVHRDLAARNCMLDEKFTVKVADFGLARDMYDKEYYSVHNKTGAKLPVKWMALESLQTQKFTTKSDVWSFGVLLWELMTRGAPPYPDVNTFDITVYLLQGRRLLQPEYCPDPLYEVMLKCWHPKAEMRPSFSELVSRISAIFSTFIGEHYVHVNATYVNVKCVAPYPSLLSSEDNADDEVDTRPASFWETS

[7] = tested on: HT-29; assay: Potency index, ratio of IC50 of foretinib to IC50 of compound for cytotoxicity against human HT-29 cells assessed as reduction in cell viability incubated for 72 hrs by MTT assay; assay type: functional
[8] = tested on: NCI-H460; assay: Potency index, ratio of IC50 of foretinib to IC50 of compound for cytotoxicity against human H460 cells assessed as reduction in cell viability incubated for 72 hrs by MTT assay; assay type: functional
[9] = tested on: A549; assay: Potency index, ratio of IC50 of foretinib to IC50 of compound for cytotoxicity against human A549 cells assessed as reduction in cell viability incubated for 72 hrs by MTT assay; assay type: functional

With `COc1cc2c(Oc3ccc(NC(=O)c4nc5ccccc5n(C5CCCC5)c4=O)cc3F)ccnc2cc1OCCCN1CCN(C)CC1` the IC50 [1] was 2.11 µM, the IC50 [2] was 2.49 µM and the IC50 [3] was 3.72 µM. It also gave an IC50 [4] of 4.37 µM and an IC50 [5] of 1.59 µM.

For `COc1ccc(CCn2c(=O)c(C(=O)Nc3ccc(Oc4ccnc5cc(OCCCN6CCCCC6)c(OC)cc45)c(F)c3)nc3ccccc32)cc1`, the IC50 [1] was 0.45 µM, the IC50 [2] was 0.94 µM and the IC50 [3] was 0.48 µM. The IC50 [4] was 1.01 µM and the IC50 [5] was 1.6 µM.

Compound `COc1cc2c(Oc3ccc(NC(=O)c4nc5ccccc5n(CCc5ccccc5)c4=O)cc3F)ccnc2cc1OCCCN1CCOCC1` has an IC50 [1] of 1.59 µM, an IC50 [2] of 0.35 µM and an IC50 [3] of 0.78 µM. The IC50 [4] was 0.91 µM and the IC50 [5] was 1.35 µM.

In the case of `COc1cc2c(Oc3ccc(NC(=O)c4nc5ccccc5n(C5CCCCC5)c4=O)cc3F)ccnc2cc1OCCCN1CCC(C)CC1`, the IC50 [1] is reported as 0.25 µM, the IC50 [2] is reported as 0.61 µM and the IC50 [3] is reported as 0.25 µM. It also gave an IC50 [4] of 1.07 µM and an IC50 [5] of 1.67 µM.

`COc1ccc(CCn2c(=O)c(C(=O)Nc3ccc(Oc4ccnc5cc(OCCCN6CCN(C)CC6)c(OC)cc45)c(F)c3)nc3ccccc32)cc1` was tested, and the IC50 [1] was 3.3 µM, the IC50 [2] was 0.79 µM and the IC50 [3] was 4.17 µM. For the same compound, the IC50 [4] was 1.67 µM and the IC50 [5] was over 10 µM.

`COc1ccc(CCn2c(=O)c(C(=O)Nc3ccc(Oc4ccnc5cc(OCCCN6CCC(C)CC6)c(OC)cc45)c(F)c3)nc3ccccc32)cc1` showed an IC50 [1] of 0.51 µM, an IC50 [2] of 1.22 µM and an IC50 [3] of 0.41 µM. It also gave an IC50 [4] of 0.55 µM and an IC50 [5] of 2.27 µM.

With `COc1cc2c(Oc3ccc(NC(=O)c4nc5ccccc5n(C5CCCCC5)c4=O)cc3F)ccnc2cc1OCCCN1CCCCC1` the IC50 [1] was 0.27 µM, the IC50 [2] was 0.27 µM and the IC50 [3] was 0.27 µM. The IC50 [4] was 0.81 µM and the IC50 [5] was 0.76 µM.

`COc1cc2c(Oc3ccc(NC(=O)c4nc5ccccc5n(CCc5ccccc5)c4=O)cc3F)ccnc2cc1OCCCN1CCC(C)CC1` showed an IC50 [1] of 1.07 µM, an IC50 [2] of 1.41 µM and an IC50 [3] of 0.65 µM. The IC50 [4] was 1.92 µM and the IC50 [5] was 2.74 µM.

`COc1cc2c(Oc3ccc(NC(=O)c4nc5ccccc5n(CCc5ccccc5)c4=O)cc3F)ccnc2cc1OCCCN1CCN(C)CC1` showed an IC50 [1] of 0.45 µM, an IC50 [2] of 0.96 µM and an IC50 [3] of 0.31 µM. The IC50 [4] was 1.04 µM and the IC50 [5] was 1.26 µM.

`COc1cc2c(Oc3ccc(NC(=O)c4nc5ccccc5n(Cc5ccc(F)cc5)c4=O)cc3F)ccnc2cc1OCCCN1CCC(C)CC1` was tested, and the IC50 [1] was 0.62 µM, the IC50 [6] was 0.00256 µM and the IC50 [2] was 0.38 µM. For the same compound, the IC50 [3] was 0.25 µM, the IC50 [4] was 0.48 µM and the IC50 [5] was 1.96 µM.

With `COc1cc2c(Oc3ccc(NC(=O)c4nc5ccccc5n(CCc5ccccc5)c4=O)cc3F)ccnc2cc1OCCCN1CCCCC1` the IC50 [1] was 2.11 µM, the IC50 [2] was 0.87 µM and the IC50 [3] was 0.18 µM. It also gave an IC50 [4] of 2.36 µM and an IC50 [5] of 3.62 µM.

In the case of `COc1cc2c(Oc3ccc(NC(=O)c4nc5ccccc5n(Cc5ccccc5)c4=O)cc3F)ccnc2cc1OCCCN1CCOCC1`, the IC50 [1] is reported as 6.7 µM, the IC50 [2] is reported as 1.12 µM and the IC50 [3] is reported as 2.79 µM. For the same compound, the IC50 [4] was 5.33 µM and the IC50 [5] was 4.28 µM.

In the case of `COc1cc2c(Oc3ccc(NC(=O)c4nc5ccccc5n(Cc5ccc(F)cc5)c4=O)cc3F)ccnc2cc1OCCCN1CCCCC1`, the IC50 [1] is reported as 0.87 µM, the IC50 [2] is reported as 0.72 µM and the IC50 [3] is reported as 0.22 µM. It also gave an IC50 [4] of 1.29 µM and an IC50 [5] of 2.12 µM.

In the case of `COc1cc2c(Oc3ccc(NC(=O)c4nc5ccccc5n(C5CCCC5)c4=O)cc3F)ccnc2cc1OCCCN1CCC(C)CC1`, the IC50 [1] is reported as 2.15 µM, the IC50 [2] is reported as 4.43 µM and the IC50 [3] is reported as 3.66 µM. For the same compound, the IC50 [4] was 5.79 µM and the IC50 [5] was 5.39 µM.

For `COc1cc2c(Oc3ccc(NC(=O)c4nc5ccccc5n(Cc5ccc(F)cc5)c4=O)cc3F)ccnc2cc1OCCCN1CCN(C)CC1`, the IC50 [1] was 2.24 µM, the IC50 [2] was 1.83 µM and the IC50 [3] was 0.23 µM. The IC50 [4] was 2.77 µM and the IC50 [5] was 1.73 µM.

`COc1cc2c(Oc3ccc(NC(=O)c4nc5ccccc5n(C5CCCC5)c4=O)cc3F)ccnc2cc1OCCCN1CCCCC1` gave an IC50 [1] of 3.08 µM, an IC50 [2] of 4.19 µM and an IC50 [3] of 1.17 µM. For the same compound, the IC50 [4] was 4.36 µM and the IC50 [5] was 5.21 µM.

`COc1cc2c(Oc3ccc(NC(=O)c4nc5ccccc5n(Cc5ccc(F)cc5)c4=O)cc3F)ccnc2cc1OCCCN1CCOCC1` was tested, and the IC50 [1] was 0.93 µM, the IC50 [2] was 2.38 µM and the IC50 [3] was 0.26 µM. The IC50 [4] was 2.02 µM and the IC50 [5] was 0.65 µM.

`COc1cc2c(Oc3ccc(NC(=O)c4nc5ccccc5n(C5CCCCC5)c4=O)cc3F)ccnc2cc1OCCCN1CCN(C)CC1` gave an IC50 [1] of 0.23 µM, an IC50 [6] of 0.00234 µM and an IC50 [2] of 0.23 µM. For the same compound, the “Ratio IC50” value [7] was 5, the IC50 [3] was 0.23 µM and the IC50 [4] was 0.32 µM. The “Ratio IC50” value [8] was 5, the IC50 [5] was 0.56 µM and the “Ratio IC50” value [9] was 5.

Work on `COc1ccc(CCn2c(=O)c(C(=O)Nc3ccc(Oc4ccnc5cc(OCCCN6CCOCC6)c(OC)cc45)c(F)c3)nc3ccccc32)cc1` yielded an IC50 [1] of 2.33 µM, an IC50 [2] of 4.94 µM and an IC50 [3] of 0.23 µM. The IC50 [4] was 6.23 µM and the IC50 [5] was 12.8 µM.

`COc1cc2c(Oc3ccc(NC(=O)c4nc5ccccc5n(C5CCCCC5)c4=O)cc3F)ccnc2cc1OCCCN1CCOCC1` showed an IC50 [1] of 0.18 µM, an IC50 [6] of 0.00142 µM and an IC50 [2] of 0.38 µM. The “Ratio IC50” value [7] was 5, the IC50 [3] was 0.18 µM and the IC50 [4] was 0.39 µM. The “Ratio IC50” value [8] was 5, the IC50 [5] was 0.81 µM and the “Ratio IC50” value [9] was 5.

With `COc1cc2c(Oc3ccc(NC(=O)c4nc5ccccc5n(C5CCCC5)c4=O)cc3F)ccnc2cc1OCCCN1CCOCC1` the IC50 [1] was 1.67 µM, the IC50 [2] was 4.03 µM and the IC50 [3] was 3.5 µM. The IC50 [4] was 2.48 µM and the IC50 [5] was 2.99 µM.
